# “Also recorded” adds a separate entry of the source. Like-named read-outs stand apart in the source and are kept apart here. Where a SMILES comes first, the peptide text is derived from it. Where no end group is shown, it is not given here.
# Experiments:
# [1] = test system: spontaneously hypertensive rats (SHRs); test: Systolic blood pressure after oral administration in SHRs (tail-cuff); type: in vivo; settings: for systolic blood pressure (SBP): 3 h after oral administration, 50 mg/kg in 1 mL saline, 6 SHRs per group, saline group 200–210 mmHg, mean ± SD; for change in blood pressure, overall result (in words): oral administration, 50 mg/kg, SHRs, time not stated
# Procedure: SHRs with tail SBP over 180 mmHg were obtained from SLC Inc. (Shizuoka, Japan). Seven-week-old male, specific pathogen-free SHRs of approximately 300 g body weight were raised under room temperature (25 °C) with a 12-h light/dark cycle. The rats were fed a normal diet and tap water, with ad libitum feeding. All animals were administrated the dissolved samples in saline solution. The rats were divided into five groups comprised of a control group (saline); a group treated with peptide from sardine (positive control); and groups treated with any of three peptides (IVDR, WYK, and VASVI). Each was orally administered to 6 SHRs at a dose of 50 mg/kg which was dissolved in 1 mL saline. SBP was measured by a tail-cuff method before administration and at 3, 6, and 9 h post-administration using a CODA™ blood pressure monitor (Kent Scientific Corp., Torrington, CT, USA). The animal experiment received approval from the Animal Care and Use Committee of the Jeju National University (Approval NO. 2017-0017) and all experiments were performed in accordance with the guidelines.
# [2] = biological target: T1, Angiotensin I-converting enzyme (ACE) (Homo sapiens, UniProt P12821); parameters: purchased Dojindo (Kumamoto, Japan); settings: cited from earlier work
# From the text: Table 1 IC50 values of ACE inhibitory peptides derived from Paralichthys olivaceus surimi. | column: IC50 Value (µM) || Several studies have investigated the relationship between protein intake and blood pressure. […] Our previous study confirmed that surimi manufactured from olive flounder could be used as a beneficial ingredient in dietary protein due to its antihypertensive effect. The study also identified novel peptides derived from surimi. ACE inhibition plays a major physiological role in regulating blood pressure. The current study investigated the ACE inhibition activity of the novel peptides ...
# Target sequence in this assay (P12821 30-1306, species assumed): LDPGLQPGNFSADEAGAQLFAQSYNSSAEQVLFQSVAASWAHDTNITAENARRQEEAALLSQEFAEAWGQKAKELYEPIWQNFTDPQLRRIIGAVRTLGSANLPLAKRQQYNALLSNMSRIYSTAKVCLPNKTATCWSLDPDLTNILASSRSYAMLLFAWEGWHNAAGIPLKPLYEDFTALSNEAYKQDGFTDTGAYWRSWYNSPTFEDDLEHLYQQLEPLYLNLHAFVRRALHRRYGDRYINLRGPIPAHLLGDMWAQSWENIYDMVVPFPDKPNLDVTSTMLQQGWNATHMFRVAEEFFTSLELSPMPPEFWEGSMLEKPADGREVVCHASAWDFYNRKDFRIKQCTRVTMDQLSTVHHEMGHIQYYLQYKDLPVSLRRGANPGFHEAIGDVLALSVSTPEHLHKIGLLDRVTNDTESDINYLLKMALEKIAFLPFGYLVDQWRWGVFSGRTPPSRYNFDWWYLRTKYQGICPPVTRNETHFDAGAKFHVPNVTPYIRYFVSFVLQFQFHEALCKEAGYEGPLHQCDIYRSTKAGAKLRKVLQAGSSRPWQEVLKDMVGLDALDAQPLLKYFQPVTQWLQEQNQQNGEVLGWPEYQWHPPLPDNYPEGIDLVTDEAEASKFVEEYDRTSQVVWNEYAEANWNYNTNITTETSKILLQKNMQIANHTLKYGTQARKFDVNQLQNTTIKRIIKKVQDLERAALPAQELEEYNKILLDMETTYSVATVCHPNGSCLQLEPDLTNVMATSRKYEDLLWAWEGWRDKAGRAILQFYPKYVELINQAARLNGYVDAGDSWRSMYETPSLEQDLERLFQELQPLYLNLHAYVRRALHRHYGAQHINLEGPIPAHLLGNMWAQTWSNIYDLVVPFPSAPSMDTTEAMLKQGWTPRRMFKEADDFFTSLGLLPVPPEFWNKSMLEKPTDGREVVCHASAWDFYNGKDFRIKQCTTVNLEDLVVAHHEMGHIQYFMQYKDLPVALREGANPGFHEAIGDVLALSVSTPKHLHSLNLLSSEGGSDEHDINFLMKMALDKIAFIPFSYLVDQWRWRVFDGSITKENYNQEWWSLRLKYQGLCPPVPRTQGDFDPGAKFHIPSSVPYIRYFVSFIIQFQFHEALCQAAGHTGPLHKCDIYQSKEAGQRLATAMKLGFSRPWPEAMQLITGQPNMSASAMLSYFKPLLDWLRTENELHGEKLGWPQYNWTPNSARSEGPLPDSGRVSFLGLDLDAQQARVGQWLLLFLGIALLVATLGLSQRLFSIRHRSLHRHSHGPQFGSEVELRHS
# [3] = biological target: T1, Angiotensin I-converting enzyme (ACE)
# Target sequence in this assay (P12821 30-1256): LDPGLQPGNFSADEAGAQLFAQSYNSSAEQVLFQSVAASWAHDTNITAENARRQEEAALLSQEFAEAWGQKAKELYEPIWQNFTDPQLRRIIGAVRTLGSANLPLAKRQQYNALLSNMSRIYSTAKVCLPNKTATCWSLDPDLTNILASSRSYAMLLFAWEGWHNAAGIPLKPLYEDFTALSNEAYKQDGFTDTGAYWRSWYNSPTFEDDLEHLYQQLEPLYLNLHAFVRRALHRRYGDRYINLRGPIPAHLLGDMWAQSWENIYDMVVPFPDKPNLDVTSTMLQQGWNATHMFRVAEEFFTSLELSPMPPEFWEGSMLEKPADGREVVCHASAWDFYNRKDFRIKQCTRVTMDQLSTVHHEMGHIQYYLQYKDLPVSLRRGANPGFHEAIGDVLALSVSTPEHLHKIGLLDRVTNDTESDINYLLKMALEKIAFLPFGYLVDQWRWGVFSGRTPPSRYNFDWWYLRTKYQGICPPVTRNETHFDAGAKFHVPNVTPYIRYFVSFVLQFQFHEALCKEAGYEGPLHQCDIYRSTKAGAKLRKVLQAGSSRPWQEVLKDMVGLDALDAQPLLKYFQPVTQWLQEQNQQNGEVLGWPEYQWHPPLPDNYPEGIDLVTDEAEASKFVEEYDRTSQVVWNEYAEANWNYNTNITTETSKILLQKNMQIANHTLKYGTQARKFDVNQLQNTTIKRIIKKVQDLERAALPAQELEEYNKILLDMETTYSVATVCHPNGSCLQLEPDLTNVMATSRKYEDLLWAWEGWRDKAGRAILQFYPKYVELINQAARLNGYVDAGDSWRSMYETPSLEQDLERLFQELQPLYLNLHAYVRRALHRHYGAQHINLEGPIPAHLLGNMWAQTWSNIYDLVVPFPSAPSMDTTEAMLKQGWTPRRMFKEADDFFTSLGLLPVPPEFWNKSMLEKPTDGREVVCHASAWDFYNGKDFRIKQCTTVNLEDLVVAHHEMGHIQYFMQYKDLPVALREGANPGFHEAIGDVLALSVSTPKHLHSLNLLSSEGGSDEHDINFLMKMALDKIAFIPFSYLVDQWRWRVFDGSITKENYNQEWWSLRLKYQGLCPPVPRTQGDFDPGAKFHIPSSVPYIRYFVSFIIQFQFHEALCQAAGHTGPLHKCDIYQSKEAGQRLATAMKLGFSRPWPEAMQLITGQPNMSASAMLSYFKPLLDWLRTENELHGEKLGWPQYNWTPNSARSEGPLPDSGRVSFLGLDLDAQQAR
# [4] = test system: Akt (protein kinase B) in HUVECs; test: Phosphorylation of Akt in HUVECs, Western blot; type: cell-based, human; settings: for phosphorylation level of Akt (in words): 25, 50, and 100 μg/mL, HUVECs pretreated 24 h, triplicate
# Procedure: (§1) HUVECs were seeded on 6-well plates at a concentration of 1 × 10* cells/mL. Sixteen hours after seeding, the cells were pretreated with the peptides for 24 h. The experimental procedure was completed as previously described. The primary antibodies (p-Akt, p-eNOS, and β-actin) were used at 1:1000 dilutions and incubated with the membrane at 4 °C overnight. The secondary antibodies were used at 1:3000 dilutions. All antibodies were purchased from Cell Signaling Technology (Beverly, MA, USA).
# [5] = test system: endothelial nitric oxide synthase (eNOS) in HUVECs; test: Phosphorylation of eNOS in HUVECs, Western blot; type: cell-based, human; settings: positive control or overall result, concentration not given
# Procedure: as §1
# [6] = biological target: T1, Angiotensin I-converting enzyme (ACE); test: ACE inhibitory activity assay (Dojindo ACE kit-WST); type: biochemical; parameters: purchased Dojindo (Kumamoto, Japan); settings: for IC50: mean ± SD of triplicate experiments, read-out: IC50 value of ACE inhibition
# Procedure: The inhibitory activity of ACE was measured using the Dojindo ACE kit-WST (Kumamoto, Japan) in accordance with the manufacturer’s protocols. The principles of the kit have been described in a previous study.
# The inhibitory ratios were calculated as follows:Inhibition rate (%) = [(Control − Sample)/(Control − Blank)] × 100(1) where IC50 is the concentration of inhibitor required for 50% inhibition of an enzymatic activity.
# Target sequence in this assay (P12821 30-1306, species assumed): as the sequence (P12821 30-1306, species assumed) above
# [7] = test system: human umbilical vein endothelial cells (HUVECs); test: NO production in HUVECs (Griess reagent); type: cell-based; settings: 3 h, 540 nm, compared with control
# Procedure: Cultures of human umbilical vein endothelial cells (HUVEC, ATCC* CRL-1730) were incubated at 37 °C in a cell incubator supplied with 5% CO2. Cell media compositions were based on those used in a previous study. Furthermore, production of NO was analyzed using Griess reagent (1% sulphanilamide and 0.1% naphthylethylenediamine dihydrochloride in 2.5% phosphoric acid), according to the method described by Ko et al.. HUVEC were seeded in 96-well plates at 1 × 10* cells/mL; after pre-incubation (24 h) the cells were treated without or with three concentrations of peptides (25, 50, and 100 μg/mL) for 3 h. Then the cells were treated with Griess reagent and incubated at 37 °C for 10 min in the dark. The […] was quantified using a microplate reader at 540 nm.
# [8] = literature peptides for comparison, read-out: IC50 of ACE inhibitory peptides isolated from food proteins
# [9] = peptides at 25–100 μg/mL, means ± SD of triplicate
molecule,measurement,setting,value
"Val-Tyr [Sardine peptide (Val-Tyr), reference compound]",systolic blood pressure (SBP),[1],184 ± 2 mmHg
same,"change in blood pressure, overall result (in words)",[1],declined considerably
same,IC50,"[2]; determined by Matsufuji et al., read-out: IC50 value of ACE inhibition (sardine peptide)",26 µM
ALGPQFY [from stone fish],IC50,[2]; [8],12 µM
EALVSQLTR [from Trichiurus lepturus myosin],IC50,[2]; [8],91.5 µM
Arg-Val-Cys-Leu-Pro (RVCLP) [from lizard fish],IC50,[2]; [8],175 µM
Phe-Gly-Als-Ser-Thr-Arg-Gly-Ala (FGASTRGA; printed 'Als' at position 3 read as a typo for Ala) [from Alaska pollock frame],IC50,[2]; [8],14.7 µM
Trp-Tyr-Lys (WYK) (peptide),IC50 of inhibition of ACE enzymatic activity (Dojindo ACE kit-WST),[3],33 µM
"[Ca+2] [calcium, reference compound]",phosphorylation of Akt (in words),"[4]; HUVECs, positive control or overall result, concentration not given",profoundly increased
same,phosphorylation of eNOS (in words),[5],profoundly increased
ANSEVAQWR [from Trichiurus lepturus myosin],IC50,[2]; [8],89.6 µM
"NCCCC[C@H](NC(=O)[C@H](Cc1ccc(O)cc1)NC(=O)[C@@H](N)Cc1c[nH]c2ccccc12)C(=O)O [WYK, Tryptophan-Tyrosine-Lysine] (H-Trp-Tyr-Lys-OH)",ACE inhibitory activity (in words),[6],high Angiotensin I-converting Enzyme (ACE) inhibition activity; also recorded: high ACE inhibitory activity
same,IC50,[6],33 ± 0.68 µM
same,systolic blood pressure (SBP),[1],173 ± 4 mmHg
same,"change in blood pressure, overall result (in words)",[1],effective at decreasing SBP in SHRs
same,phosphorylation level of Akt (in words),[4],significantly increased
same,NO production in HUVECs (in words),[7]; [9],significantly higher
Ala-Ser-Leu [from silkworm pupa],IC50,[2]; [8],102 µM
"VASVI [VASVI, Valine-Alanine-Serine-Valine-Isoleucine]",ACE inhibitory activity (in words),[6],high Angiotensin I-converting Enzyme (ACE) inhibition activity; also recorded: high ACE inhibitory activity
same,IC50,[6],32.7 ± 1.32 µM
same,systolic blood pressure (SBP),[1],181 ± 2 mmHg
same,"change in blood pressure, overall result (in words)",[1],effective at decreasing SBP in SHRs
same,phosphorylation level of Akt (in words),[4],significantly increased
same,NO production in HUVECs (in words),[7]; [9],significantly higher
"CC[C@H](C)[C@H](N)C(=O)N[C@H](C(=O)N[C@@H](CC(=O)O)C(=O)N[C@@H](CCCNC(=N)N)C(=O)O)C(C)C [IVDR, Isoleucine-Valine-Aspartic acid-Arginine] (H-IVDR-OH)",ACE inhibitory activity (in words),[6],high Angiotensin I-converting Enzyme (ACE) inhibition activity; also recorded: high ACE inhibitory activity
same,IC50,[6],46.9 ± 0.32 µM
same,"change in blood pressure, overall result (in words)",[1],effective at decreasing SBP in SHRs
same,phosphorylation level of Akt (in words),[4],significantly increased
same,NO production in HUVECs (in words),[7]; 100 μg/mL,increased the production of NO only slightly
VASVI [Val-Ala-Ser-Val-Ile (VASVI)],IC50 of inhibition of ACE enzymatic activity (Dojindo ACE kit-WST),[3],32.7 µM
IVDR [Ile-Val-Asp-Arg (IVDR)],IC50 of inhibition of ACE enzymatic activity (Dojindo ACE kit-WST),[3],46.9 µM

# — article PMC7278688, “Anti-Hypertensive Activity of Novel Peptides Identified from Olive Flounder (Paralichthys olivaceus) Surimi” (Foods, 2020)
